{"source": "patent US20200339953A1", "about": "“HEMATOPOIETIC STEM AND PROGENITOR CELL THERAPY” (priority 2010, published 2020)", "key": {"[1]": {"test_system": "Whole cord blood cells or CD34^+ cells", "assay": "Cell viability assay (7-AAD staining)", "format": "cell-based, human", "method": "Whole cord blood cells or CD34^+ cells obtained from Stem Cell Technologies (Vancouver, Canada) were aliquoted equally in Eppendorf tubes and treated ex vivo at a range of 16,16-dimethyl PGE2 concentrations (10 μM to 100 μM) or DMSO control; temperatures (4° C., 22° C., or 37° C.) for 60 or 120 minutes in LMD/5% HSA media. After treatment, an aliquot of the incubated cells were assayed using 7-Amino-Actinomycin D (7-AAD) staining as an indicator of cell death. One million whole cord blood were stained with 5 μL of 7AAD staining solution (BD Bioscience, San Jose, Calif.), or 200,000 CD34^+ cord blood cells were stained with 1 μL 7-AAD solution. Cells were analyzed on a Guava EasyCyte 8HT System (Millipore) and with the FlowJo software package (Tree Star Inc., Ashland, Oreg.). A separate aliquot of the same cells were also taken for assessment of proliferation potential using CFU-C assays (discussed below in Example 4)."}, "[2]": {"test_system": "human CD34^+ cells", "assay": "Microfluidic qPCR using the Fluidigm platform (signature genes of Table 3)", "format": "cell-based", "details": "37° C.", "method": "Real-time PCR transcript quantitation from 16,16-dimethyl PGE2 ex vivo treated CD34+ cell samples was performed using the BioMark Dynamic Array microfluidics system (Fluidigm Corporation, South San Francisco, Calif., USA). Total RNA was isolated from treated cells using Pico Pure RNA Isolation Kit (Molecular Devices, Sunnyvale, Calif., USA). Complimentary DNA (cDNA) was reverse transcribed from 50 ng of isolated total RNA using the High-Capacity cDNA Reverse Transcription Kit (Life Technologies Corporation, Carlsbad, Calif., USA).\ncDNA was pre-amplified for specific target genes (96) using a 200 nM mixture of 96 gene specific primer pairs (see Table 1), including 6 reference control genes using the TaqMan PreAmp Master Mix Kit (Life Technologies) protocol. Specific target amplification (STA) from cDNA was performed using 14 cycles of amplification with the standard cycling conditions using the manufacturer's protocol. EvaGreen dye (Biotium, Inc. Hayward, Calif., USA) was added according to Fluidigm's EvaGreen protocol to detect amplified products. For samples, the reaction mix contained 3.0 μL Gene Expression Master Mix (Life Tech.), 0.3 μL Sample Loading Buffer (Fluidigm), 0.3 μL 20× EvaGreen dye (Biotium, Inc.), 1.5 μL diluted (1:5 sterile nH2O) STA cDNA, and 0.9 μL sterile diH2O for loading into the sample inlets of the 96.96 Dynamic Array (Fluidigm).\nSamples were run in replicates, from 5 to 9 wells. For primer pairs, the reaction mix contained 2.5 μL Gene Specific Primer pairs (20 μM) and 2.5 μL Assay Loading Buffer (Fluidigm) for loading into the assay inlets on the 96.96 Dynamic Array (Fluidigm). 96.96 Dynamic arrays were loaded using a NanoFlex IFC Controller HX (Fluidigm) and real-time reactions were performed using a BioMark Real-Time PCR System (Fluidigm).\nResults were analyzed using BioMark Real-Time PCR Analysis software. Average Cts were calculated from the sample replicates and delta-delta Cts (ΔΔCt) were calculated using the mean of 6 reference genes (ACTB, GAPDH, HPRT1, QARS, ARPC2 and LRIG2) against a vehicle only sample. Cts above 28 or amplified products with inappropriate melting curve properties were excluded from the calculations.\nA microfluidic qPCR platform was also used to measure expression changes of a 16,16-dimethyl PGE2 gene expression signature of the genes listed in Table 3 in human CD34^+ cells at different incubation times.\nFurther, gene expression signatures were measured on cells that received short pulse treatments with 16,16-dimethyl PGE2 followed by a recovery period in the absence of the drug. Human CD34^+ cells were incubated for different times in the presence of 16,16-dimethyl PGE2 followed by a wash and recovery period in media designed to reflect the in vivo setting. The experimental design matched the ex vivo treatment paradigm where cells are treated, washed to remove the drug and then administered to the patient. CD34^+ cells were incubated with 16,16-dimethyl PGE2 at 37° C. for 5, 15, 30, 60, or 120 minutes and the gene expression signatures were analyzed. For incubation periods less than 120 minutes, the cells were washed in media to remove the 16,16-dimethyl PGE2 and then the cells were incubated for the remaining period in media to allow time for gene expression to take place."}, "[3]": {"test_system": "Murine whole bone marrow (WBM) cells", "assay": "Colony forming Unit Spleen at day 12 (CFU-S12) assay", "format": "in vivo, C57Bl/6 mice", "details": "10 μM; for CFU-S12 number: WBM", "method": "Colony forming Unit Spleen at day 12 (CFU-S12) assays were performed as described in North et al., Nature. 2007 Jun. 21; 447(7147):1007-11. […] After treatment, the cells were washed by centrifugation and resuspended in PBS for tail-vein injection into C57Bl/6 recipients (2×5/treatment) that had been previously lethally irradiated at 10.5Gy. 50,000 cells were injected per recipient. […]"}, "[4]": {"test_system": "Whole cord blood cells or CD34^+ cells", "assay": "Colony Forming Unit-Cell assay (CFU-C)", "format": "cell-based, human", "method": "Colony Forming Unit-Cell assays (CFU-C) were performed using a methyl cellulose assay kit, MethoCult® GF H4034 (Stem Cell Technologies, Vancouver, CA). Whole cord blood cells or CD34^+ cells obtained from Stem Cell Technologies (Vancouver, Canada) were aliquoted equally in Eppendorf tubes and treated ex vivo at a range of 16,16-dimethyl PGE2 concentrations (10 μM to 100 μM) or DMSO control; temperatures (4° C., 22° C., or 37° C.) for 120 minutes in LMD/5% HSA media. After treatment, the cells were washed in LMD/5% HSA media and resuspended in Iscove's Media containing 2% Fetal Bovine Serum (FBS) (Stem Cell Technologies). Cells were then loaded into a MethoCult® assay tube, mixed, and plated in 35 mm tissue culture plates according to the manufacturer's instructions. Unless otherwise mentioned, the equivalent of 10,000 WCB cells and 250 CD34^+ cells were loaded into each plate."}, "[5]": {"details": "CD34+ cells, 10 μM, 120 minutes, 37° C. vs vehicle or 4° C."}, "[6]": {"details": "whole cord blood cells or CD34+ cells, high temperatures, relatively long incubation periods vs other conditions"}}}
{"smiles": "CCCCC(C)(C)[C@H](O)/C=C/[C@H]1[C@H](O)CC(=O)[C@@H]1C/C=C\\CCCC(=O)O", "note": "[16,16-dimethyl PGE2]", "values": [{"measurement": "cell viability (FIG. 10)", "setting": "[1]; [5]", "result": "does not decrease cell viability"}, {"measurement": "cell viability (7-AAD)", "setting": "[1]; [6]", "result": "did not decrease cell viability"}, {"measurement": "pulse incubation giving maximal gene expression changes", "setting": "[2]; 10 μM", "result": "about 2 hours"}, {"measurement": "constant exposure after which suitable gene expression signatures were detectable", "setting": "[2]; 10 μM, FIG. 14A", "result": "at least 60 minutes"}, {"measurement": "constant exposure giving maximal gene expression response", "setting": "[2]; 10 μM, FIG. 14A-B", "result": "after at least about two hours"}, {"measurement": "pulse incubation after which recognizable gene expression signatures were observed", "setting": "[2]; 10 μM, recovery to 120 minutes total", "result": "about 30 minutes"}, {"measurement": "gene expression response to short pulse treatments (5-15 minutes)", "setting": "[2]; 10 μM, recovery to 120 minutes total, FIGS. 15A-15B", "result": "not sufficient"}, {"measurement": "concentration at which the gene expression signature was maximal", "setting": "[2]; 2 hours, FIGS. 16A-16B", "result": 10, "unit": "µM"}, {"measurement": "number of hematopoietic progenitor cells (FIG. 19A)", "setting": "[3]; 37° C. incubation", "result": "increases the number of hematopoietic progenitor cells"}, {"measurement": "CFU-S12 number", "setting": "[3]; 4° C. for 1 hour", "result": "8.5±1.3", "unit": "colonies"}, {"measurement": "CFU-S12 number", "setting": "[3]; 37° C. for 1 hour", "result": "11.2±1.5"}, {"measurement": "CFU-S number compared to DMSO treated cells", "setting": "[3]; murine bone marrow, 4° C. treatment", "result": "small increase in CFU-S number"}, {"measurement": "CFU-C colony formation (FIG. 19D)", "setting": "[4]; CD34+ cells treated at 37° C. vs DMSO or 4° C.", "result": "increase in CFU-C colony formation"}, {"measurement": "ability to form colony forming units (FIG. 11)", "setting": "[4]; [5]", "result": "does not decrease the ability of the cells to form colony forming units"}, {"measurement": "proliferative potential (CFU-C)", "setting": "[4]; [6]", "result": "higher proliferative potential"}]}
